Measured values published in US5214191A, “Oxidant sensitive and insensitive aromatic esters as inhibitors of human neutrophil elastase” (Cortech, Inc., priority 1990, dated 1993).
Converted amounts (≈) assume the structure as drawn. Read-outs that look alike come from different tables or passages of the source.

Legend:
[1] = biological target: alpha-chymotrypsin (α-CH) (Bos taurus, UniProt P00766); assay: Specificity determination, alpha-chymotrypsin, N-succinyl-ala-ala-pro-leu-pNA substrate; type: biochemical; conditions: ratio of I50's (α-CH/HNE)
From the text: (§1) Representative compounds according to the invention have been compared with a compound (Compound A) typifying the compounds described in U.S. Pat. […] The comparisons were directed towards potency (represented by the I50 's for human neutrophil elastase (HNE), porcine pancreatic elastase (PPE) and alpha-chymotrypsin (α-CH)), specificity (represented by the ratios of the I50 's (PPE/HNE and α-CH/HNE)) and the ability to inhibit the digestion of extracellular matrix by activated intact human neutrophils (expressed as a fraction of control) of the compounds listed. The following results were obtained (TABLE IV): Specificity Determination Reagents: 2) α-Chymotrypsin (α-CH) 1 mg/mL in 0.01M sodium acetate, pH 5.5. An aliquot of this stock solution is diluted 1:85 in 0.01M sodium acetate, 20% DMSO, 10 mM CaCl2, pH 5.5, 0.005% triton X-100 detergent. 4) α-CH substrate: N-succinyl-[…] 20 mM stock in DMSO. Inhibitor, substrate buffer: 0.1M tris-HCl, 0.01M CaCl2, 0.005% triton X-100, 20% DMSO, pH 7.7.

[2] = biological target: porcine pancreatic elastase (PPE) (Sus scrofa, UniProt P00772); assay: Specificity determination, porcine pancreatic elastase, N-succinyl-ala-ala-ala-pNA substrate; type: biochemical; conditions: ratio of I50's (PPE/HNE)
From the text: as §1, with “1) Porcine Pancreatic Elastase (PPE)” for “2) α-Chymotrypsin (α-CH)”, “1:20” for “1:85”, “5.5. 3) PPE” for “5.5, 0.005% triton X-100 detergent. 4) α-CH”

[3] = biological target: T1, human neutrophil elastase (HNE) (Homo sapiens, UniProt P08246); assay: Potency (I50 determination) against human neutrophil elastase, N-methoxysuccinyl-ala-ala-pro-val-pNA substrate; type: biochemical; conditions: for potency relative to Compound A: in words, versus Compound A (pivaloyl group)
T1 sequence (P08246 30-267): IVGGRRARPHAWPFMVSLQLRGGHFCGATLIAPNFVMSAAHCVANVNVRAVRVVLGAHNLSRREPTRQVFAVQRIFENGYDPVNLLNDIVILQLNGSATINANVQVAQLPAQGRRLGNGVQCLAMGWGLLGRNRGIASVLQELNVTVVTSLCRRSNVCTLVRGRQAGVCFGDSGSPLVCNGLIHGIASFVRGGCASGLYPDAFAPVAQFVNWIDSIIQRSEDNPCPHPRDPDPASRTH
Method: Potency (I50 Determination)
A) 0.075M sodium phosphate, 20% dimethyl sulfoxide (DMSO), pH 7.7=substrateand inhibitor buffer
B) 0.075M sodium phosphate no DMSO, pH 7.7=inhibitor buffer
C) 10 mM human neutrophil elastase (HNE) substrate =N-methoxysuccinyl-ala-ala-pro-val-pNA in DMSO
D) 0.01M sodium acetate, 20% DMSO, pH 5.5=enzyme buffer (dilution)
E) 0.01M sodium acetate, pH 5.5=enzyme buffer (storage)
F) HNE (1 mg) dissolved in 1 mL of reagent E for storage at -20° C.
Make a 10 mM stock of the inhibitor in DMSO. Dilute an aliquot (10 μL) up to 1.0 mL in reagent A (100 μM). Serially dilute 100 μL of the 100 μM stock to 10.0, 1.0, 0.1, 0.01 μM in reagent A. Apply 100 μL of the diluted material to the wells of a 96-well plate. Dilute an aliquot of reagent F 1:150 in reagent D, apply 50 μL aliquots to the indicated wells and incubate for 7 minutes at room temperature.
The HNE substrate solution is made by taking 100 μL of reagent C into 500 μL of reagent A and 400 μL of reagent B. After the 7 minutes of incubation, the substrate (50 μL) is applied to each well. The HNE catalyzed reaction is then monitored spectrophotometrically at 405 nm using an ELISA plate reader machine (UVMAX, Molecular Devices) which processes the raw data with an on-board kinetics program. The enzyme activity is plotted against different inhibitor concentrations and the I50 value is determined by using a curve fitting software program. Once the "screening" I50 has been approximated, a more precise I50 value can be obtained by examination of inhibitor concentrations around this value.

[4] = PBS solubility; type: physicochemical; conditions: aqueous buffer
[5] = Table IV, human neutrophil elastase, read-out: HNE I50
[6] = Table III, series with varied R4, read-out: I50

Chain of porcine pancreatic elastase (PPE) (P00772 27-266): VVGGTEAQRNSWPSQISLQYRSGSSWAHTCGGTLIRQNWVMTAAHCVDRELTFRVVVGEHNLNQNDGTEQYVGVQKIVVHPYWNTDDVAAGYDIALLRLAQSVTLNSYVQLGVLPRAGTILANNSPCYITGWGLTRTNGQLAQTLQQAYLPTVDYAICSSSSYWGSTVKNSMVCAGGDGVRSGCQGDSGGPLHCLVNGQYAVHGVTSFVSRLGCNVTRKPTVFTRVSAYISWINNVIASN

Structure (SMILES) | α-Chymotrypsin (I50)/HNE(I50) [1] | PPE (I50)/HNE (I50) [2] | IC50 [3, 5] | potency relative to Compound A [3] | solubility [4] | IC50 [3, 6]
CCC(C(=O)Oc1ccc(S(C)(=O)=O)cc1)c1ccccc1 (stereo not drawn) [Compound 3] | 176.0 | 129.6 | 0.025 µM | improve potency relative to a compound bearing a simple pivaloyl group | – | –
CCC(C(=O)Oc1ccc(S(C)(=O)=O)cc1)c1ccc(OC)cc1 (stereo not drawn) [Compound 37, 4-Methylsulfonylphenyl 2-(4'-Methoxyphenyl)butyrate] | 106.2 | 38.6 | 0.031 µM | improve potency relative to a compound bearing a simple pivaloyl group | – | –
CCC(C(=O)Oc1ccc(S(C)(=O)=O)cc1)c1ccc2cc(OC)ccc2c1 (stereo not drawn) [Compound 384] | 131.8 | 29.1 | 0.055 µM | improve potency relative to a compound bearing a simple pivaloyl group | – | –
CC(C)(C)C(=O)Oc1ccc(S(C)(=O)=O)cc1 [Compound A, reference compound] | 146.10 | 18.84 | 0.129 µM | – | – | –
CCC(C(=O)Oc1ccc(S(=O)(=O)CC(C)(C)C(=O)O)cc1)c1ccccc1 (stereo not drawn) [S(O2)CH2 C(CH3)2 CO2 H] | – | – | – | – | ≥ 2 mg/mL | 0.141 µM
CCC(C(=O)Oc1ccc(S(C)(=O)=O)cc1)c1ccccc1 (stereo not drawn) [S(O)2 CH3] | – | – | – | – | 0.01 mg/mL (≈ 31.4 µM) | 0.1 µM
CCC(C(=O)Oc1ccc([S+]([O-])CC(C)(C)C(=O)O)cc1)c1ccccc1 (stereo not drawn) [S(O)CH2 C(CH3)2 CO2 H] | – | – | – | – | ≥ 2 mg/mL | 0.357 µM
CCC(C(=O)Oc1ccc([S+](C)[O-])cc1)c1ccccc1 (stereo not drawn) [S(O)CH3] | – | – | – | – | 0.6 mg/mL (≈ 1980 µM) | 0.6 µM
CCC(C(=O)Oc1ccc(SCC(C)(C)C(=O)O)cc1)c1ccccc1 (stereo not drawn) [SCH2 C(CH3)2 CO2 H] | – | – | – | – | ≥ 2 mg/mL | 0.892 µM
CCC(C(=O)Oc1ccc(SC)cc1)c1ccccc1 (stereo not drawn) [SCH3] | – | – | – | – | 0.01 mg/mL (≈ 34.9 µM) | 9 µM
